# Experimental data published in article PMC5510229, “BCAT1 controls metabolic reprogramming in activated human macrophages and is associated with inflammatory diseases” (Nature Communications, 2017).
# pIC50: −log10 of the molar value.
# What was measured:
# [1] = Dose-escalating toxicity study; format: in vivo; settings: oral or intraperitoneal administration, doses up to 2 g kg^−1
# recombinant human BCAT2 = biological target: T1, recombinant human BCAT2 (Homo sapiens, UniProt O15382); assay: BCAT2 aminotransferase enzymatic assay (continuous fluorometric); format: biochemical
# T1 construct: purchased Abcam
# T1 sequence (O15382 28-392): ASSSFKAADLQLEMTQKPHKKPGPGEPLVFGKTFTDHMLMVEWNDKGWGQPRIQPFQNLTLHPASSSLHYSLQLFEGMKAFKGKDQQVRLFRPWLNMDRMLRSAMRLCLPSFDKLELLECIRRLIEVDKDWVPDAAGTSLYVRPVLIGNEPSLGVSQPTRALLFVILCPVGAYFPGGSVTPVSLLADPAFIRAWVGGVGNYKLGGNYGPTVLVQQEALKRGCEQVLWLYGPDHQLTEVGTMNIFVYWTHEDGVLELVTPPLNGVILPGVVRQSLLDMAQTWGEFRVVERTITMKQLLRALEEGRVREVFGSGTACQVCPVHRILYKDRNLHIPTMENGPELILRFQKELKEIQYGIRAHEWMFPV
# Water solubility = format: physicochemical
# recombinant human BCAT1 = biological target: T2, recombinant human BCAT1 (Homo sapiens, UniProt P54687); assay: BCAT1 aminotransferase enzymatic assay (continuous fluorometric); format: biochemical; settings: 100 ng recombinant protein
# T2 construct: purchased Abcam
# T2 sequence (P54687 1-386): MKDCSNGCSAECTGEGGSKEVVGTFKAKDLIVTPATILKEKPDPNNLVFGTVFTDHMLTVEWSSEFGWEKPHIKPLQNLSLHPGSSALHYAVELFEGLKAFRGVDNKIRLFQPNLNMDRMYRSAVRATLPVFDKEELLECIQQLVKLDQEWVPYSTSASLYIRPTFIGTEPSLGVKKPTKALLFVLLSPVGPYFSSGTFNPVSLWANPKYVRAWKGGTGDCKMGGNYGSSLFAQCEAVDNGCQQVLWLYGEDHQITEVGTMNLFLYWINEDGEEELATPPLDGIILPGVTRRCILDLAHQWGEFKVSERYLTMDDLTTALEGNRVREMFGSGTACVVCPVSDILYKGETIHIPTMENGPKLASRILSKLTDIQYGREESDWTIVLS
# Description: To gain more insights into the role of BCAT enzymes in macrophages, we set out to investigate these in human monocyte-derived macrophages (hMDMs) by subjecting these cells to RNA-sequencing (Fig. 1a). […] To examine the role of BCAT1 in macrophage metabolism and inflammatory diseases, we identified a novel BCAT1 inhibitor, ERG240, using molecular modelling approaches based on the X-ray crystal structures of BCAT1 (ref. [22]). ERG240 is a water-soluble structural analogue of leucine (Fig. 1b). Its ability to suppress the BCAT1 aminotransferase activity was measured in a continuous fluorometric assay (ref. [23] and see Supplementary Methods). […]
# Figure 1 BCAT1 expression and inhibition in human macrophages. […] (d) Relative expression of IRG1, HIF1A and IL1B measured by qRT-PCR in control, ERG240-treated (20 mM, 3 h), LPS treated (100 ng ml^−1, 3 h), and LPS+ERG240 treated (LPS, 100 ng ml^−1; ERG240, 20 mM for 3 h) hMDMs. ns, non-significant. […]
# Finall y, th e libraries were size selected using AM Pure XP Beads (Beckman Coulter) purified and their quality was checked using Agilent 2100 Bioanalyzer. Samples were randomized to avoid batch effects and multiplexed libraries wer e run on a single lan e (6 samples/lane) of the HiSeq 2500 platform (Illumina) to generate 100bp paired-end reads. […]
# respectivel y. RNA-seq reads were aligned to human (hg19) or mouse (mm10) reference genomes using tophat2. […]
structure (smiles),measurement,setting,value
CC(=O)C(C)CCC(=O)O (stereo not shown) [ERG240],adverse effects in dose-escalating toxicity study,[1],no major adverse effects
same,inhibition of BCAT2,recombinant human BCAT2,no inhibition
same,water solubility,Water solubility,water-soluble
same,pIC50,recombinant human BCAT1,9.00 to 10.00
